Key:
[1] = over 2500 patients, long-term use; men 100 to 200 or more than 200 mg/day; cited from earlier work
[2] = tested on: hot flashes; details: 37 subjects with bothersome hot flashes; cited from earlier work
[3] = Same Phase 2 trial: cyproterone acetate and 15β-OH cyproterone acetate concentrations by treatment and visit; assay type: in vivo, human; details: 5 mg/day, 15 mg/day and 25 mg/day
Description: FIG. 3 depicts schematically the analysis of cyproterone acetate and 15β-OH cyproterone acetate (a breakdown product of cyproterone acetate that contributes to the effectiveness of the drug) concentration in the patients who were treated.

[4] = tested on: post-orchiectomy hot flashes in prostate cancer subjects; details: CPA 300 mg daily, 3 weeks, 12 post-orchiectomy subjects; cited from earlier work
[5] = tested on: hot flashes and outbreaks of sweating after orchiectomy; details: CPA 150 mg daily, cited from earlier work
[6] = Prior study of 50 mg and 100 mg CPA: discontinuation rates; assay type: in vivo, human
Description: The results of this study were compared with results from a prior study in which the efficacy of 50 mg and 100 mg of CPA was investigated. Efficacy data for the 50 mg and 100 mg studies showing a reduction in average daily number of moderate to severe hot flashes, and a reduction in average severity of hot flashes is shown in FIGS. 6 and 7, respectively. A comparison of the percent of patients with complete disappearance of all hot flashes at 12 weeks of treatment across studies is shown in Table 10.

[7] = Same Phase 2 trial: adverse events and discontinuation; assay type: in vivo, human
Description: The overall study duration for each subject was approximately 19 weeks, which included a screening period of up to 4 weeks, a one-week placebo run-in period, a 12-week double-blind period, and a follow-up telephone call two weeks after the last dose of study medication.
After providing informed consent on the first day of the screening period, all subjects had medical and hot flash history recorded, a physical examination, a chest x-ray and Doppler to assess known thromboembolic risk factors, an ECG to evaluate cardiac risks, and clinical laboratory evaluations. Once all results of tests conducted during the screening period were obtained, subjects who met all of the inclusion criteria and none of the exclusion criteria were eligible to enter the one-week, single-blind, placebo run-in period. […] After beginning study medication, subjects returned for study visits at weeks 2, 4, 8, and 12. Two weeks after the final treatment visit, a telephone follow-up call was conducted to record and evaluate adverse events (“AE”s) since the last study visit.

[8] = tested on: quality of life of prostate cancer patients; details: 367 evaluable patients; oral and i.m., doses varied; cited from earlier work

## CC(=O)O[C@]1(C(C)=O)CC[C@H]2[C@@H]3C=C(Cl)C4=CC(=O)[C@@H]5C[C@@H]5[C@]4(C)[C@H]3CC[C@@]21C [CPA, cyproterone acetate]
[1]
  Correlation between duration of CPA treatment and prevalence of liver enzyme elevations: No correlation was found
[2]
  Therapeutic efficacy: reduction in hot flashes: 80%
[3]
  Cyproterone acetate and 15β-OH cyproterone acetate concentration in treated patients: dose proportional response
[4]
  Frequency of hot flashes: significantly reduced
[5]
  Frequency and severity in subjects who continued to experience hot flashes or sweating: decreased
[5]; placebo 47%
  Subjects with outbreaks of sweating: 24%
[5]; placebo 61%
  Subjects experiencing hot flashes: 33%
[6]; CPA 50 mg (N = 246)
  12-week double-blind discontinuation due to Adverse Event, number: 13
  12-week double-blind discontinuation rate due to Adverse Event: (5.3%)
[6]; CPA 100 mg (N = 245)
  12-week double-blind discontinuation due to Adverse Event, number: 24
  12-week double-blind discontinuation rate due to Adverse Event: (9.8%)
[7]; CPA 5 mg (N = 81)
  12-week double-blind discontinuation due to Adverse Event, number: 2
  12-week double-blind discontinuation rate due to Adverse Event: (2.5%)
  Treatment-emergent AE Constipation, %: 0.00%
  Treatment-emergent AE Depression, %: 1.23%
  Treatment-emergent AE Diarrhoea, %: 2.47%
  Treatment-emergent AE Dizziness, %: 2.47%
  Treatment-emergent AE Dyspnoea, %: 3.70%
  Treatment-emergent AE Fatigue, %: 1.23%
  Treatment-emergent AE Headache, %: 3.70%
  Treatment-emergent AE Influenza, %: 0.00%
  Treatment-emergent AE Nasopharyngitis, %: 3.70%
  Treatment-emergent AE Nausea, %: 0.00%
  Treatment-emergent AE Oedema peripheral, %: 1.23%
  Treatment-emergent AE Pain in extremity, %: 3.70%
  Treatment-emergent AE Urinary tract infection, %: 1.23%
  Treatment-emergent AE Vomiting, %: 1.23%
  Treatment-related AE Constipation, %: 0.00%
  Treatment-related AE Dyspnoea, %: 0.00%
[7]; CPA 5 mg/day vs placebo, 15 and 25 mg/day
  Proportion of subjects experiencing treatment-emergent AEs, rank among groups: fewest proportion of subjects
[7]; CPA 15 mg (N = 99)
  12-week double-blind discontinuation due to Adverse Event, number: 5
  12-week double-blind discontinuation rate due to Adverse Event: (5.1%)
  Treatment-emergent AE Constipation, %: 6.06%
  Treatment-emergent AE Depression, %: 4.04%
  Treatment-emergent AE Diarrhoea, %: 6.06%
  Treatment-emergent AE Dizziness, %: 7.07%
  Treatment-emergent AE Dyspnoea, %: 7.07%
  Treatment-emergent AE Fatigue, %: 6.06%
  Treatment-emergent AE Gynaecomastia, %: 2.02%
  Treatment-emergent AE Headache, %: 2.02%
  Treatment-emergent AE Influenza, %: 1.01%
  Treatment-emergent AE Nasopharyngitis, %: 3.03%
  Treatment-emergent AE Nausea, %: 2.02%
  Treatment-emergent AE Oedema peripheral, %: 1.01%
  Treatment-emergent AE Pain in extremity, %: 3.03%
  Treatment-emergent AE Urinary tract infection, %: 0.00%
  Treatment-emergent AE Vomiting, %: 0.00%
  Treatment-related AE Constipation, %: 2.02%
  Treatment-related AE Dyspnoea, %: 4.04%
[7]; CPA 25 mg (N = 87)
  12-week double-blind discontinuation due to Adverse Event, number: 7
  12-week double-blind discontinuation rate due to Adverse Event: (8.0%)
  Treatment-emergent AE Constipation, %: 3.45%
  Treatment-emergent AE Depression, %: 1.15%
  Treatment-emergent AE Diarrhoea, %: 3.45%
  Treatment-emergent AE Dizziness, %: 4.60%
  Treatment-emergent AE Dyspnoea, %: 8.05%
  Treatment-emergent AE Fatigue, %: 1.15%
  Treatment-emergent AE Gynaecomastia, %: 4.60%
  Treatment-emergent AE Headache, %: 3.45%
  Treatment-emergent AE Influenza, %: 3.45%
  Treatment-emergent AE Nasopharyngitis, %: 5.75%
  Treatment-emergent AE Nausea, %: 2.30%
  Treatment-emergent AE Oedema peripheral, %: 5.75%
  Treatment-emergent AE Pain in extremity, %: 0.00%
  Treatment-emergent AE Urinary tract infection, %: 3.45%
  Treatment-emergent AE Vomiting, %: 2.30%
  Treatment-related AE Constipation, %: 3.45%
  Treatment-related AE Dyspnoea, %: 4.60%
[8]
  Evaluable patients with general improvement in subjective assessment of quality of life: 70%

From patent publication US8288342B2, “Methods for treating vasomotor symptoms in castrated prostatic cancer patients with low dose cyproterone acetate” (priority 2008, dated 2012)
